# Measured values taken from patent US4349545A, “Novel erythromycin a derivatives” (Roussel Uclaf, priority 1980, dated 1982).
# Read-outs that look alike come from different tables or passages of the source.
# Assays:
# [1] = tested on: Staphylococcus aureus ATCC 6538; assay: serial dilution liquid medium MIC, Staphylococcus aureus ATCC 6538 Pen-Sensibles; type: cell-based; conditions: read-out: minimum inhibiting concentration (MIC)
# Procedure: (§1) The method was a serial dilution of liquid medium test wherein a series of tubes were prepared containing the same amount of sterile nutritive medium and increasing amounts of the test product was distributed in each tube. The tubes were then seeded with a bacterial strain and incubated for 24 hours in an oven at 37° C. The degree of inhibition was determined by transillumination to determine the minimum inhibiting concentration (MIC) express in μg/ml and the results are reported in the following Tables.
# [2] = tested on: Staphylococcus aureus UC 1128; assay: serial dilution liquid medium MIC, Staphylococcus aureus UC 1128 pen-resistant; type: cell-based; conditions: read-out: minimum inhibiting concentration (MIC)
# Procedure: as §1
# [3] = tested on: Staphylococcus aureus exp. n° 54 146; assay: serial dilution liquid medium MIC, Staphylococcus aureus exp. n° 54 146; type: cell-based; conditions: Staphylococcus aureus exp. 54 146; 24 hours at 37° C.; read-out: minimum inhibiting concentration (MIC)
# Procedure: as §1
# [4] = tested on: Streptococcus pyogenes A 561; assay: serial dilution liquid medium MIC, Streptococcus pyogenes A 561; type: cell-based; conditions: A561, 24 hours at 37° C., read-out: minimum inhibiting concentration (MIC)
# Procedure: as §1
# [5] = tested on: Streptococcus faecalis 5432; assay: serial dilution liquid medium MIC, Streptococcus faecalis 5432; type: cell-based; conditions: Enterococcus faecalis, 24 hours at 37° C., read-out: minimum inhibiting concentration (MIC)
# Procedure: as §1
# [6] = tested on: Streptococcus faecalis 99 F 74; assay: serial dilution liquid medium MIC, Streptococcus faecalis 99 F 74; type: cell-based; conditions: Enterococcus faecalis, 99F74, 24 hours at 37° C., read-out: minimum inhibiting concentration (MIC)
# Procedure: as §1
# [7] = tested on: Bacillus subtilis ATCC 6 633; assay: serial dilution liquid medium MIC, Bacillus subtilis ATCC 6 633; type: cell-based; conditions: ATCC6, 24 hours at 37° C., read-out: minimum inhibiting concentration (MIC)
# Procedure: as §1
# [8] = tested on: Staphylococcus aureus No. 54,146; assay: In vivo activity in mice experimentally infected with Staphylococcus aureus No. 54,146; conditions: groups of 10 mice
# Procedure: The test was effected with the compounds of the invention and erythromycin as a reference on groups of 10 mice weighing about 21 g experimentally infected with Staphylococcus aureus No. 54,146 by intraperitoneal administration of 0.5 ml of a 22 hour culture of the said organism in bouillon with a pH of 7 diluted to 1/6 with physiological water. The test compounds were orally administrated to the mice 1,5 and 24 hours after the infection and the mortality on the 8th day was determined.
# [9] = tested on: Streptococcus pyrogenes A561; assay: In vivo activity in mice experimentally infected with Streptococcus pyrogenes A561; conditions: groups of 10 male mice
# Procedure: In a second test, groups of 10 male mice weighing about 21 g were experimentally infected by an intraperitoneal injection of 0.5 ml of a 22 hour culture of Streptococcus pyrogenes A561 in Todd Hewitt bouillon with a pH of 7 diluted to 1/1000 with physiological water. The compounds of Examples 1 or 5 were administered orally 1,5 and 24 hours after the infection and the number of mice living on the fifth day was determined.
# [10] = tested on: Staphylococcus aureus 1061; assay: serial dilution liquid medium MIC, Staphylococcus aureus 1061 pen-sensibles; type: cell-based; conditions: 24 hours at 37° C., read-out: minimum inhibiting concentration (MIC)
# Procedure: as §1
# [11] = tested on: Streptococcus faecalis 5435; assay: serial dilution liquid medium MIC, Streptococcus faecalis 5435; type: cell-based; conditions: Enterococcus faecalis, 24 hours at 37° C., read-out: minimum inhibiting concentration (MIC)
# Procedure: as §1
# [12] = Staphylococcus aureus, ATCC6538, 24 h
# [13] = UC1128, Staphylococcus aureus UC 1128 pen-resistant, 24 hours at 37° C.
# [14] = dose 0,5mg oral, 1,5 and 24 hours after infection
# [15] = dose 0,25mg oral, 1,5 and 24 hours after infection
# [16] = ATCC6538, Staphylococcus aureus ATCC 6538 Pen-Sensibles, 24 hours at 37° C.
# [17] = dose 0,75mg oral, 1,5 and 24 hours after infection
# [18] = dose 1mg oral, 1,5 and 24 hours after infection
SMILES,"MIC [1, 12]","MIC [2, 13]",MIC [3],MIC [4],MIC [5],MIC [6],MIC [7],"No. of mice living on the 8th day [8, 14]","No. of mice living on the 8th day [8, 15]","No. of mice alive on 5th day ([9]; dose 0.5 mg oral, 1,5 and 24 hours after infection)","No. of mice alive on 5th day ([9]; dose 1 mg oral, 1,5 and 24 hours after infection)","MIC ([2]; Staphylococcus aureus, UC1128, 24 h)","MIC [1, 16]","No. of mice living on the 8th day [8, 17]","No. of mice living on the 8th day [8, 18]","No. of mice alive on 5th day ([9]; dose 0.1 mg oral, 1,5 and 24 hours after infection)",MIC [10],MIC [11]
"CC[C@H]1OC(=O)[C@H](C)[C@@H](O[C@H]2C[C@@](C)(OC)[C@@H](O)[C@H](C)O2)[C@H](C)[C@@H](O[C@@H]2O[C@H](C)C[C@H](N(C)C)[C@H]2O)[C@](C)(O)C[C@@H](C)C(=NOCOCCOC)[C@H](C)[C@@H](O)[C@]1(C)O [Example 1, 9-[0-(2-methoxyethoxy)-methyloxime] of erythromycin]",0.5 µg/mL,2 µg/mL,1 µg/mL,0.05 µg/mL,0.2 µg/mL,0.2 µg/mL,0.2 µg/mL,10 mice,7 mice,2 mice,10 mice,,,,,,,
"CC[C@H]1OC(=O)[C@H](C)[C@@H](O[C@H]2C[C@@](C)(OC)[C@@H](O)[C@H](C)O2)[C@H](C)[C@@H](O[C@@H]2O[C@H](C)C[C@H](N(C)C)[C@H]2O)[C@](C)(O)C[C@@H](C)C(=NOCCOc2ccc(Cl)cc2)[C@H](C)[C@@H](O)[C@]1(C)O [Example 2, 9-[0-(2-{4-chlorophenoxy}-ethyl)-oxime] of erythromycin]",0.1 µg/mL,,0.5 µg/mL,≤ 0.02 µg/mL,0.1 µg/mL,0.1 µg/mL,0.2 µg/mL,,,,,1 µg/mL,,,,,,
"CCOCCON=C1[C@H](C)C[C@@](C)(O)[C@H](O[C@@H]2O[C@H](C)C[C@H](N(C)C)[C@H]2O)[C@@H](C)[C@H](O[C@H]2C[C@@](C)(OC)[C@@H](O)[C@H](C)O2)[C@@H](C)C(=O)O[C@H](CC)[C@@](C)(O)[C@H](O)[C@H]1C [Example 3, 9-[0-(2-ethoxyethyl)-oxime] of erythromycin]",,1 µg/mL,0.5 µg/mL,0.1 µg/mL,0.2 µg/mL,0.2 µg/mL,0.2 µg/mL,7 mice,,,,,0.5 µg/mL,9 mice,9 mice,,,
"CCOCCOCON=C1[C@H](C)C[C@@](C)(O)[C@H](O[C@@H]2O[C@H](C)C[C@H](N(C)C)[C@H]2O)[C@@H](C)[C@H](O[C@H]2C[C@@](C)(OC)[C@@H](O)[C@H](C)O2)[C@@H](C)C(=O)O[C@H](CC)[C@@](C)(O)[C@H](O)[C@H]1C [Example 4, 9-[0-(2-ethoxyethoxymethyl)-oxime] of erythromycin]",,3 µg/mL,2 µg/mL,0.05 µg/mL,0.5 µg/mL,0.2 µg/mL,0.5 µg/mL,4 mice,0 mice,,,,2 µg/mL,9 mice,10 mice,,,
"CC[C@H]1OC(=O)[C@H](C)[C@@H](O[C@H]2C[C@@](C)(OC)[C@@H](O)[C@H](C)O2)[C@H](C)[C@@H](O[C@@H]2O[C@H](C)C[C@H](N(C)C)[C@H]2O)[C@](C)(O)C[C@@H](C)C(=NOCCN(C)C)[C@H](C)[C@@H](O)[C@]1(C)O [Example 5, 9-[0-(2-dimethylaminoethyl)-oxime] of erythromycin]",,1 µg/mL,1 µg/mL,≤ 0.02 µg/mL,0.05 µg/mL,0.05 µg/mL,0.5 µg/mL,8 mice,2 mice,,,,1 µg/mL,10 mice,,10 mice,,
"CC[C@H]1OC(=O)[C@H](C)[C@@H](O[C@H]2C[C@@](C)(OC)[C@@H](O)[C@H](C)O2)[C@H](C)[C@@H](O[C@@H]2O[C@H](C)C[C@H](N(C)C)[C@H]2O)[C@](C)(O)C[C@@H](C)C(=NOCOCc2ccccc2)[C@H](C)[C@@H](O)[C@]1(C)O [Example 7, 9-[0-benzyloxymethoxy-oxime] of erythromycin]",0.2 µg/mL,1 µg/mL,0.5 µg/mL,0.05 µg/mL,0.1 µg/mL,0.1 µg/mL,0.1 µg/mL,,,,,,,,,,,
"CC[C@H]1OC(=O)[C@H](C)[C@@H](O[C@H]2C[C@@](C)(OC)[C@@H](O)[C@H](C)O2)[C@H](C)[C@@H](O[C@@H]2O[C@H](C)C[C@H](N(C)C)[C@H]2O)[C@](C)(O)C[C@@H](C)C(=NOCCN2CCOCC2)[C@H](C)[C@@H](O)[C@]1(C)O [Example 35, 9-[O-(2-{morpholin-4-yl}-ethyl)oxime] of erythromycin]",,1 µg/mL,0.6 µg/mL,0.05 µg/mL,0.2 µg/mL,0.4 µg/mL,,8 mice,2 mice,,,,,9 mice,10 mice,,0.4 µg/mL,1 µg/mL
"CC[C@H]1OC(=O)[C@H](C)[C@@H](O[C@H]2C[C@@](C)(OC)[C@@H](O)[C@H](C)O2)[C@H](C)[C@@H](O[C@@H]2O[C@H](C)C[C@H](N(C)C)[C@H]2O)[C@](C)(O)C[C@@H](C)C(=NOC(C)CN(C)C)[C@H](C)[C@@H](O)[C@]1(C)O (stereo partly drawn) [Example 36, 9-[O-(2-dimethylamino-1-methyl-ethyl)-oxime] of erythromycin]",,0.5 µg/mL,0.5 µg/mL,≤ 0.01 µg/mL,0.1 µg/mL,0.1 µg/mL,,9 mice,3 mice,,,,,10 mice,,,0.2 µg/mL,0.5 µg/mL
